The assay deals with T1, Recombinant human mPGES-1 (Homo sapiens, UniProt O14684).
T1 construct: made in house; host or cells: CHO cells (crude microsomal fractions)
T1 sequence (O14684 1-152): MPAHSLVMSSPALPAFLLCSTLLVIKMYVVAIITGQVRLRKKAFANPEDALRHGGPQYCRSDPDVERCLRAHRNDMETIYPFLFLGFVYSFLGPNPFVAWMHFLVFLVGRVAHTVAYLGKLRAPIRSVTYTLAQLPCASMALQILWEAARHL
The experiment in a line: In-vitro screening of mPGES-1 inhibitors (inhibition of PGE2 formation from PGH2, HTRF detection). The format is biochemical. As to conditions: mPGES-1 enzyme; for inhibition at 1 µM: 1 μM test compound, read-out: Percentage inhibition at 1 μM; for inhibition at 1 µM / inhibition at 10 µM: crude microsomal fractions; for inhibition at 10 µM: 10 μM test compound, read-out: Percentage inhibition at 10 μM; for IC50: class symbols. The gist of the method:
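Crude CHO-expressed microsomes (40–60 μg/mL protein) preincubated 10 min with compound in 0.1 M potassium phosphate/2 mM EDTA containing 2.5 mM GSH, 0.5% DMSO final. PGH2 (15 μM) reacted 1 min, stopped with stannous chloride. PGE2 quantified by HTRF, IC50 from nonlinear regression of percent inhibition.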
On the technique in general: TR-FRET usually uses a lanthanide donor and a delayed reading to cut background.

As for `COc1cc(-c2nn(-c3c(Cl)cccc3Cl)c(=O)[nH]2)ccc1NC(=O)c1ccc(C(F)(F)F)cc1` [Example-176, N-(4-(1-(2,6-Dichlorophenyl)-4,5-dihydro-5-oxo-1H-1,2,4-triazol-3-yl)-2-methoxyphenyl)-4-(trifluoromethyl)benzamide], the inhibition at 1 µM turned out to be 45.8% and the inhibition at 10 µM was determined as 89.5%.
On the same counts, the results for `COc1cc(-c2nn(-c3c(Cl)cccc3Cl)c(=O)[nH]2)ccc1NC(=O)c1cc(F)cc(F)c1` [Example-177, N-(4-(1-(2,6-Dichlorophenyl)-4,5-dihydro-5-oxo-1H-1,2,4-triazol-3-yl)-2-methoxyphenyl)-3,5-difluorobenzamide] are 29.9% and 71.1%.
Regarding `COc1cc(-c2nn(-c3c(Cl)cccc3Cl)c(=O)[nH]2)ccc1C(=O)Nc1cc(C(F)(F)F)ccc1F` [Example-178, 4-(1-(2,6-Dichlorophenyl)-4,5-dihydro-5-oxo-1H-1,2,4-triazol-3-yl)-N-(2-fluoro-5-(trifluoromethyl)phenyl)-2-methoxybenzamide], the inhibition at 1 µM is 42.7% and the inhibition at 10 µM amounted to 91.5%.
In the case of `COc1cc(-c2nn(-c3c(Cl)cccc3Cl)c(=O)[nH]2)ccc1C(=O)Nc1ccc(C)cc1Cl` [Example-179, N-(2-Chloro-4-methylphenyl)-4-(1-(2,6-dichlorophenyl)-4,5-dihydro-5-oxo-1H-1,2,4-triazol-3-yl)-2-methoxybenzamide], the inhibition at 1 µM amounted to 50.6% and the inhibition at 10 µM came to 95.2%.
Take `CC(C)(C)C(=O)NCc1cnc(C2CC2)c(-c2nn(-c3ccc(C(F)(F)F)cc3)c(=O)[nH]2)c1` [Example-180, N-((6-Cyclopropyl-5-(1-(4-(trifluoromethyl)phenyl)-4,5-dihydro-5-oxo-1H-1,2,4-triazol-3-yl)pyridin-3-yl)methyl)pivalamide]: the inhibition at 1 µM amounted to 72.3%, the inhibition at 10 µM is 92.5% and the IC50 was > 100 nM.
Consider `CC(C)(C)C(=O)NCc1ccc(Cl)c(-c2nn(-c3ccc(C#CC4CC4)cc3F)c(=O)[nH]2)c1` [Example-181, N-(4-Chloro-3-(1-(4-(2-cyclopropylethynyl)-2-fluorophenyl)-4,5-dihydro-5-oxo-1H-1,2,4-triazol-3-yl)benzyl)pivalamide], for which the inhibition at 1 µM came to 88.2%, the inhibition at 10 µM turned out to be 94.3% and the half-inhibitory concentration (IC50) is < 50 nM.
For the molecule `CC(C)(C)S(=O)(=O)NCc1ccc(Cl)c(-c2nn(-c3ccc(C(F)(F)F)cc3)c(=O)[nH]2)c1` [Example-182, N-(4-Chloro-3-(5-oxo-1-(4-(trifluoromethyl)phenyl)-4,5-dihydro-1H-1,2,4-triazol-3-yl)benzyl)-2-methylpropane-2-sulfonamide], the inhibition at 1 µM came out at 92.9%, the inhibition at 10 µM worked out at 94% and the IC50 is < 50 nM.
As to `N#Cc1cnc(C(F)F)c(-c2nn(-c3ccc(C(F)(F)F)cc3)c(=O)[nH]2)c1` [Example-183, 6-(Difluoromethyl)-5-(5-oxo-1-(4-(trifluoromethyl)phenyl)-4,5-dihydro-1H-1,2,4-triazol-3-yl)nicotinonitrile], the inhibition at 1 µM amounted to 41.5% and the inhibition at 10 µM was 85.5%.
For the molecule `O=C(NCc1ccc(Cl)c(-c2nn(-c3ccc(C(F)(F)F)cc3)c(=O)[nH]2)c1)C1CCC1` [Example-184, N-(4-Chloro-3-(5-oxo-1-(4-(trifluoromethyl)phenyl)-4,5-dihydro-1H-1,2,4-triazol-3-yl)benzyl)cyclobutanecarboxamide], the inhibition at 1 µM came to 98.6%, the inhibition at 10 µM was found to be 94.3% and the IC50 was < 50 nM.
On the same counts, the results for `O=C(NCc1ccc(Cl)c(-c2nn(-c3ccc(C(F)(F)F)cc3)c(=O)[nH]2)c1)C1CCCC1` [Example-185, N-(4-Chloro-3-(5-oxo-1-(4-(trifluoromethyl)phenyl)-4,5-dihydro-1H-1,2,4-triazol-3-yl)benzyl)cyclopentanecarboxamide] are 96.1%, 98.3% and < 50 nM.
`CC(C)(C)C(=O)NCc1cnc(C(F)F)c(-c2nn(-c3ccc(C(F)(F)F)cc3)c(=O)[nH]2)c1` [Example-186]: the inhibition at 1 µM amounted to 96.8%, the inhibition at 10 µM turned out to be 98% and the IC50 was < 50 nM.
For `CC(C)C(=O)NCc1cnc(C(F)F)c(-c2nn(-c3ccc(C(F)(F)F)cc3)c(=O)[nH]2)c1` [Example-187, N-((6-(Difluoromethyl)-5-(5-oxo-1-(4-(trifluoromethyl)phenyl)-4,5-dihydro-1H-1,2,4-triazol-3-yl)pyridin-3-yl)methyl)isobutyramide], the inhibition at 1 µM was determined as 98.6%, the inhibition at 10 µM was 97.5% and the IC50 was < 50 nM.
`CC(C)S(=O)(=O)NCc1cnc(C(F)F)c(-c2nn(-c3ccc(C(F)(F)F)cc3)c(=O)[nH]2)c1` [Example-188, N-((6-(Difluoromethyl)-5-(5-oxo-1-(4-(trifluoromethyl)phenyl)-4,5-dihydro-1H-1,2,4-triazol-3-yl)pyridin-3-yl)methyl)propane-2-sulfonamide]: the inhibition at 1 µM stood at 89.5%, the inhibition at 10 µM worked out at 99.3% and the half-inhibitory concentration (IC50) is 50 to 100 nM.
For `O=C(NCc1cnc(C(F)F)c(-c2nn(-c3ccc(C(F)(F)F)cc3)c(=O)[nH]2)c1)C1CCC1` [Example-189, N-((6-(Difluoromethyl)-5-(5-oxo-1-(4-(trifluoromethyl)phenyl)-4,5-dihydro-1H-1,2,4-triazol-3-yl)pyridin-3-yl)methyl)cyclobutanecarboxamide], the inhibition at 1 µM worked out at 96.2%, the inhibition at 10 µM was determined as 98.5% and the IC50 is < 50 nM.
On the same counts, the results for `O=C(NCc1ccc(Cl)c(-n2nc(-c3ccc(C#CC4CC4)cc3)[nH]c2=O)c1)C(F)(F)F` [Example-190, N-(4-Chloro-3-(3-(4-(cyclopropylethynyl)phenyl)-5-oxo-4,5-dihydro-1H-1,2,4-triazol-1-yl)benzyl)-2,2,2-trifluoroacetamide] are 100%, 100% and < 50 nM.
Take `CC(C)(CO)C(=O)NCc1ccc(Cl)c(-n2nc(-c3ccc(C#CC4CC4)cc3)[nH]c2=O)c1` [Example-191, N-(4-Chloro-3-(3-(4-(cyclopropylethynyl)phenyl)-5-oxo-4,5-dihydro-1H-1,2,4-triazol-1-yl)benzyl)-3-hydroxy-2,2-dimethylpropanamide]: the inhibition at 1 µM came to 93.5%, the inhibition at 10 µM is 100% and the IC50 is > 100 nM.
Regarding `CC(C)(CF)C(=O)NCc1cnc(C(F)F)c(-c2nn(-c3ccc(C(F)(F)F)cc3)c(=O)[nH]2)c1` [Example-192, 3-Fluoro-N-((6-(difluoromethyl)-5-(1-(4-(trifluoromethyl)phenyl)-4,5-dihydro-5-oxo-1H-1,2,4-triazol-3-yl)pyridin-3-yl)methyl)-2,2-dimethylpropanamide], the inhibition at 1 µM came out at 99.3%, the inhibition at 10 µM worked out at 99.3% and the IC50 is < 50 nM.

The inhibition is the change of the read-out against control, counted positive when it falls. The IC50 is the concentration that inhibits the measured activity by half.
